According to US11214803B2, “Modulators of YAP1 expression” (Ionis Pharmaceuticals, Inc., priority 2019, dated 2022):
Strand notation (5' to 3'): a small letter for the sugar, then the base; units joined by * are phosphorothioate-linked, units joined directly phosphodiester-linked; [ ] holds rarer units or linkages, { } end groups; capitals alone tell only the bases. k = constrained ethyl (cEt); [5mC] = 5-methylcytosine; d = 2'-deoxy (DNA)

Legend:
Yap1 mRNA [1] = assay: Antisense inhibition of human Yap1 in A-431 cells by cEt gapmers, single dose (Example 2, RTS4814); assay type: cell-based
Procedure, shortened: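 A-431 cells (5,000/well) took up 2,000 nM 3-10-3 cEt gapmer by free uptake for ~48 h. Yap1 mRNA was quantified by qRT-PCR with primer probe set RTS4814, normalized to RIBOGREEN total RNA, and reported as % of untreated control.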

Yap1 mRNA [2] = assay: Dose-dependent inhibition of human Yap1 in A-431 cells (Example 8, 10,000 cells per well, RTS4814); assay type: cell-based; settings: free uptake, approximately 48 hours, RTS4814; for Yap1 mRNA, % UTC: A-431 cells, 10,000 cells per well
Procedure, shortened: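 A-431 cells (10,000/well) dosed with modified oligonucleotides by free uptake; Yap1 mRNA measured ~48 h later with primer-probe set RTS4814, normalized to total RNA (RIBOGREEN). Values are % of untreated control; IC50 from linear regression on log/linear plot.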

[3] = Table 33, Yap1 mRNA, percent of untreated control, 3-10-3 cEt gapmers targeting SEQ ID NO.: 1, and 2
[4] = Table 32, Yap1 mRNA, percent of untreated control, 3-10-3 cEt gapmers targeting SEQ ID NO.: 1, and 2
[5] = Table 18, A-431 cells, 5,000 cells per well, free uptake, 2,000 nM modified oligonucleotide, approx. 48 hours, RTS4814, normalized to RIBOGREEN, Yap1 mRNA as percent of untreated control
[6] = Table 24, Yap1 mRNA as percent of untreated control, 3-10-3 cEt gapmers targeting SEQ ID NO.: 1, and 2
[7] = Table 25, Yap1 mRNA as percent of untreated control, 3-10-3 cEt gapmers targeting SEQ ID NO.: 1, and 2
[8] = Table 6, A-431 cells, 5,000 cells per well, free uptake, 2,000 nM modified oligonucleotide, approx. 48 hours, RTS4814, normalized to RIBOGREEN, Yap1 mRNA relative to untreated control cells
[9] = Yap1 mRNA as percent of untreated control, A-431 cells, 3-10-3 cEt gapmers targeting SEQ ID NO.: 1, and 2, Table 31
[10] = Table 20, Yap1 mRNA, percent of untreated control, 3-10-3 cEt gapmers targeting SEQ ID NO.: 1 and 2
[11] = Table 19, A-431 cells, 5,000 cells per well, free uptake, 2,000 nM modified oligonucleotide, approx. 48 hours, RTS4814, normalized to RIBOGREEN, Yap1 mRNA as percent of untreated control
[12] = Yap1 mRNA as percent of untreated control, A-431 cells, 3-10-3 cEt gapmers targeting SEQ ID NO.: 1, and 2, Table 30
[13] = A-431 cells, 5,000 cells per well, free uptake, 2,000 nM modified oligonucleotide, approx. 48 hours, RTS4814, normalized to RIBOGREEN, Table 4, asterisk (*) = targets amplicon region of primer probe set

1074451 (kG*kA*k[5mC]*dT*dA*dA*dT*dG*dA*dT*dA*dG*d[5mC]*kA*k[5mC]*kT; antisense) [compound 1074451]
YAP1 (% UTC) (Yap1 mRNA [1]; [3]): 6 % UTC | Yap1 mRNA, % UTC (Yap1 mRNA [2]; 31.3 nM): 63 % UTC | Yap1 mRNA, % UTC (Yap1 mRNA [2]; 125.0 nM): 26 % UTC | Yap1 mRNA, % UTC (Yap1 mRNA [2]; 500.0 nM): 8 % UTC | Yap1 mRNA, % UTC (Yap1 mRNA [2]; 2000.00 nM): 4 % UTC | IC50 (Yap1 mRNA [2]; A-431 cells, linear regression on log/linear plot): 40 nM

1074514 (kA*kA*kG*dG*dA*dT*dA*d[5mC]*dA*dT*dT*d[5mC]*d[5mC]*kA*k[5mC]*kT; antisense) [compound 1074514]
YAP1 (% UTC) (Yap1 mRNA [1]; [4]): 25 % UTC

1075890 (antisense kG*kA*kT*dT*dA*dA*dA*dA*dG*dT*dA*dG*dG*k[5mC]*k[5mC]*k[5mC]) [compound 1075890]
YAP1 (% UTC) (Yap1 mRNA [1]; [4]): 92 % UTC

1074724 (antisense kG*kG*kG*dT*dA*dA*dA*dG*dG*dA*dA*dG*dA*kT*k[5mC]*kT) [Compound 1074724]
YAP1 (% UTC) (Yap1 mRNA [1]; [5]): 22 % UTC

1075626 (k[5mC]*kA*kT*dT*dA*dG*d[5mC]*d[5mC]*dA*dA*dA*dG*d[5mC]*kT*k[5mC]*kA; antisense) [Compound 1075626]
YAP1 (% UTC) (Yap1 mRNA [1]; [6]): 34 % UTC

1075204 (antisense kG*kT*kT*dA*dA*dA*d[5mC]*dA*d[5mC]*dA*dT*d[5mC]*dT*k[5mC]*kA*kG) [Compound 1075204]
YAP1 (% UTC) (Yap1 mRNA [1]; [5]): 43 % UTC

1076555 (antisense kT*kG*kG*dG*dA*dA*dT*dA*dG*dT*dA*d[5mC]*dA*k[5mC]*kA*kG) [Compound 1076555]
YAP1 (% UTC) (Yap1 mRNA [1]; [7]): 19 % UTC

716510 (antisense k[5mC]*kA*kA*d[5mC]*dA*dT*dG*d[5mC]*dT*dA*dT*dG*dT*kA*kA*kT) [Compound 716510]
YAP1 (% UTC) (Yap1 mRNA [1]; [8]): 122 % UTC

1075857 (antisense k[5mC]*kT*kT*dA*dA*dA*d[5mC]*dA*dA*dT*d[5mC]*d[5mC]*d[5mC]*kT*kA*kA) [compound 1075857]
YAP1 (% UTC) (Yap1 mRNA [1]; [9]): 69 % UTC

1074385 (k[5mC]*kT*kT*d[5mC]*dA*dA*dG*dG*dT*dA*dG*dT*d[5mC]*kT*kG*kG; antisense) [compound 1074385]
YAP1 (% UTC) (Yap1 mRNA [1]; [9]): 17 % UTC

1076390 (kG*kA*kT*d[5mC]*dG*dA*dA*dA*dT*dA*dT*dT*d[5mC]*kG*kA*kG; antisense) [Compound 1076390]
YAP1 (% UTC) (Yap1 mRNA [1]; [10]): 54 % UTC

1075722 (kG*kT*kT*dA*dA*dA*dT*dA*d[5mC]*d[5mC]*dT*dT*d[5mC]*kT*kA*kG; antisense) [Compound 1075722]
YAP1 (% UTC) (Yap1 mRNA [1]; [6]): 88 % UTC

1075691 (k[5mC]*kG*kT*d[5mC]*dA*dA*dA*dA*dT*dT*dA*dA*d[5mC]*kA*kG*kA; antisense) [Compound 1075691]
YAP1 (% UTC) (Yap1 mRNA [1]; [7]): 46 % UTC

1075269 (antisense kT*kT*kA*dT*dT*dA*dA*d[5mC]*d[5mC]*dT*dG*dG*dA*kG*kA*kG) [Compound 1075269]
YAP1 (% UTC) (Yap1 mRNA [1]; [11]): 13 % UTC

1074865 (kA*k[5mC]*kA*dT*dA*dT*dG*dA*dG*d[5mC]*dA*dT*dG*k[5mC]*kT*k[5mC]; antisense) [compound 1074865]
YAP1 (% UTC) (Yap1 mRNA [1]; [9]): 46 % UTC

1074379 (antisense kT*kG*kG*dG*dA*dA*dA*d[5mC]*dG*dG*dT*dT*d[5mC]*kT*kG*k[5mC]) [Compound 1074379]
YAP1 (% UTC) (Yap1 mRNA [1]; [7]): 20 % UTC

1074534 (antisense kT*kA*kA*dT*dA*dG*d[5mC]*dT*d[5mC]*dT*dT*dT*d[5mC]*kT*kA*kG) [Compound 1074534]
YAP1 (% UTC) (Yap1 mRNA [1]; [10]): 88 % UTC

716420 (k[5mC]*kA*kA*d[5mC]*dT*dG*dG*d[5mC]*dT*dT*dA*dT*dG*kG*kA*kA; antisense) [Compound 716420]
YAP1 (% UTC) (Yap1 mRNA [1]; [8]): 50 % UTC

1076554 (antisense kT*kG*kG*dG*dA*dA*dT*dA*dG*dT*dG*dA*dA*kT*kT*kT) [Compound 1076554]
YAP1 (% UTC) (Yap1 mRNA [1]; [6]): 30 % UTC

1075856 (antisense k[5mC]*k[5mC]*kT*dA*dA*dT*d[5mC]*dA*dA*dG*dT*dT*d[5mC]*kT*kG*k[5mC]) [compound 1075856]
YAP1 (% UTC) (Yap1 mRNA [1]; [12]): 40 % UTC

1075719 (k[5mC]*kT*kA*dA*dA*dA*d[5mC]*d[5mC]*dG*dG*d[5mC]*dT*dG*kG*kA*k[5mC]; antisense) [Compound 1075719]
YAP1 (% UTC) (Yap1 mRNA [1]; Table 21, Yap1 mRNA, percent of untreated control, 3-10-3 cEt gapmers targeting SEQ ID NO.: 1 and 2): 76 % UTC

1074277 (antisense kG*kT*k[5mC]*dT*dA*dG*d[5mC]*d[5mC]*dA*dA*dG*dA*dG*kG*kT*kG) [Compound 1074277]
YAP1 (% UTC) (Yap1 mRNA [1]; [11]): 18 % UTC

716535 (antisense k[5mC]*k[5mC]*kT*dG*dA*d[5mC]*dT*dG*dA*dA*dA*dA*dT*kA*kA*k[5mC]) [Compound 716535]
YAP1 (% UTC) (Yap1 mRNA [1]; [13]): 86 % UTC

1075539 (k[5mC]*kT*kT*dA*dA*dG*dG*dG*dA*dT*dG*dG*dA*kA*k[5mC]*kA; antisense) [compound 1075539]
YAP1 (% UTC) (Yap1 mRNA [1]; [3]): 79 % UTC

1074180 (antisense k[5mC]*k[5mC]*kG*dG*dG*dA*dT*d[5mC]*d[5mC]*dA*dT*dG*dG*k[5mC]*kT*kT) [Compound 1074180]
YAP1 (% UTC) (Yap1 mRNA [1]; [5]): 86 % UTC

1075816 (kT*kA*kG*dT*dA*dT*dA*dA*dA*dG*d[5mC]*dA*dG*kG*kG*k[5mC]; antisense) [Compound 1075816]
YAP1 (% UTC) (Yap1 mRNA [1]; Table 22, Yap1 mRNA as percent of untreated control, 3-10-3 cEt gapmers, single dose): 7 % UTC

716438 (kA*kT*kT*dT*dT*dT*dG*dG*d[5mC]*dT*dT*dG*dT*k[5mC]*kA*kG; antisense) [Compound 716438]
YAP1 (% UTC) (Yap1 mRNA [1]; [8]): 32 % UTC

716412 (kG*kT*kA*dG*dT*d[5mC]*dT*dG*dG*dG*dA*dA*dA*k[5mC]*kG*kG; antisense) [Compound 716412]
YAP1 (% UTC) (Yap1 mRNA [1]; [13]): 41 % UTC

1075922 (antisense kG*k[5mC]*k[5mC]*d[5mC]*dA*dA*dA*dA*dT*dA*dG*dG*dA*kT*kA*k[5mC]) [compound 1075922]
YAP1 (% UTC) (Yap1 mRNA [1]; [4]): 60 % UTC

1074929 (antisense kT*kA*kT*dA*d[5mC]*dA*dA*d[5mC]*dA*dG*dG*d[5mC]*d[5mC]*kT*kG*k[5mC]) [compound 1074929]
YAP1 (% UTC) (Yap1 mRNA [1]; [9]): 79 % UTC

1076339 (antisense k[5mC]*kA*kG*d[5mC]*dA*dA*dT*dA*d[5mC]*dT*dG*dT*dG*kG*kG*k[5mC]) [compound 1076339]
YAP1 (% UTC) (Yap1 mRNA [1]; [3]): 13 % UTC

716387 (kT*kA*kT*dG*dG*dT*dT*dT*dA*dT*dA*dT*dA*kG*kT*kA; antisense) [Compound 716387]
YAP1 (% UTC) (Yap1 mRNA [1]; [8]): 33 % UTC

1075174 (antisense k[5mC]*k[5mC]*kT*dG*dA*dA*dA*dA*dG*dA*d[5mC]*dA*dG*kT*k[5mC]*k[5mC]) [Compound 1075174]
YAP1 (% UTC) (Yap1 mRNA [1]; [10]): 74 % UTC

1074288 (antisense kG*kA*k[5mC]*dT*dG*dA*dT*dT*d[5mC]*dT*d[5mC]*dT*dG*kG*kT*kT) [compound 1074288]
YAP1 (% UTC) (Yap1 mRNA [1]; [12]): 48 % UTC

1076499 (kG*k[5mC]*kT*dA*dA*dT*dA*dT*dA*dT*d[5mC]*d[5mC]*dA*kA*kT*kT; antisense) [compound 1076499]
YAP1 (% UTC) (Yap1 mRNA [1]; [3]): 37 % UTC

1076080 (k[5mC]*kA*kT*dT*dA*dG*d[5mC]*dA*dG*dT*dT*d[5mC]*dA*k[5mC]*kT*kA; antisense) [compound 1076080]
YAP1 (% UTC) (Yap1 mRNA [1]; [12]): 55 % UTC

1075590 (k[5mC]*kA*kT*d[5mC]*dA*dA*dA*dA*dT*dT*dA*dG*d[5mC]*kA*kG*kG; antisense) [Compound 1075590]
YAP1 (% UTC) (Yap1 mRNA [1]; [10]): 50 % UTC

1075781 (k[5mC]*kA*kT*dA*dT*dA*dT*dT*dG*dT*dG*dA*d[5mC]*kT*kT*k[5mC]; antisense) [Compound 1075781]
YAP1 (% UTC) (Yap1 mRNA [1]; [11]): 2 % UTC

1074278 (antisense k[5mC]*kT*kT*dG*dG*dG*dT*d[5mC]*dT*dA*dG*d[5mC]*d[5mC]*kA*kA*kG) [Compound 1074278]
YAP1 (% UTC) (Yap1 mRNA [1]; [10]): 31 % UTC

1076331 (k[5mC]*kA*kT*dT*dA*dT*dT*d[5mC]*dA*dG*dT*dA*dG*kT*kT*kG; antisense) [Compound 1076331]
YAP1 (% UTC) (Yap1 mRNA [1]; [7]): 71 % UTC

1076490 (antisense k[5mC]*k[5mC]*kA*dA*dA*dA*dT*dA*dG*dG*dT*dG*dA*kG*kT*k[5mC]) [Compound 1076490]
YAP1 (% UTC) (Yap1 mRNA [1]; [6]): 2 % UTC

1075473 (kA*kG*kT*dT*dA*dT*dA*dA*d[5mC]*dT*dG*dT*dA*k[5mC]*kT*kA; antisense) [compound 1075473]
YAP1 (% UTC) (Yap1 mRNA [1]; [9]): 89 % UTC
